Patent publication US4200635A, “Antibacterially active amides” (Beecham Group Limited, priority 1977, dated 1980)
In brackets after ≈: the same amount, converted by molar mass.

What follows are molecules tested on Pasteurella multocida 1633 (assay: MIC, serial dilution in nutrient agar, human bacteria). Conditions: nutrient agar containing 5% chocolated horse blood.
Type: cell-based

Row | SMILES | MIC [mg/L]
1 | COC(=O)CCCCCCCCNC(=O)C=C(C)CC1OCC(CC2OC2C(C)C(C)O)C(O)C1O (stereo not drawn) [Example 7, 8-Methoxycarbonyloctylamide of monic acid A] | 1 (≈ 1.95 µM)
2 | C=CCNC(=O)C=C(C)CC1OCC(CC2OC2C(C)C(C)O)C(O)C1O (stereo not drawn) [Example 8, Allylamide of monic acid A] | 0.05 (≈ 0.13 µM)

The molecules below were run on Haemophilus influenzae Q1 in the same assay as above. Conditions: nutrient agar containing 5% chocolated horse blood.
Type: cell-based

Row | SMILES | MIC [mg/L]
3 | COC(=O)CCCCCCCCNC(=O)C=C(C)CC1OCC(CC2OC2C(C)C(C)O)C(O)C1O (stereo not drawn) [Example 7, 8-Methoxycarbonyloctylamide of monic acid A] | 0.5 (≈ 0.973 µM)
4 | C=CCNC(=O)C=C(C)CC1OCC(CC2OC2C(C)C(C)O)C(O)C1O (stereo not drawn) [Example 8, Allylamide of monic acid A] | > 100

Each molecule was assayed on Haemophilus influenzae Wy21 in the same assay as above. Conditions: Haemophilus influenzae, WY21.
Type: cell-based

Row | SMILES | MIC [mg/L]
5 | COC(=O)CCCCCCCCNC(=O)C=C(C)CC1OCC(CC2OC2C(C)C(C)O)C(O)C1O (stereo not drawn) [Example 7, 8-Methoxycarbonyloctylamide of monic acid A] | 0.5 (≈ 0.973 µM)

The molecules below were run on Neisseria catarrhalis 1502 in the same assay as above. Conditions: Neisseria catarrhalis 1502; nutrient agar containing 5% chocolated horse blood; read-out: M.I.C.
Type: cell-based

Row | SMILES | MIC [mg/L]
6 | C=CCNC(=O)C=C(C)CC1OCC(CC2OC2C(C)C(C)O)C(O)C1O (stereo not drawn) [Example 8, Allylamide of monic acid A] | 100 (≈ 261 µM)

Same assay, conditions: Neisseria, 1502

Row | SMILES | MIC [mg/L]
7 | COC(=O)CCCCCCCCNC(=O)C=C(C)CC1OCC(CC2OC2C(C)C(C)O)C(O)C1O (stereo not drawn) [Example 7, 8-Methoxycarbonyloctylamide of monic acid A] | 0.1 (≈ 0.195 µM)

Each molecule was assayed on Bacillus subtilis 6633 in the same assay as above. Conditions: Bacillus subtilis 6633; nutrient agar containing 5% chocolated horse blood; read-out: M.I.C.
Type: cell-based

Row | SMILES | MIC [mg/L]
8 | C=CCNC(=O)C=C(C)CC1OCC(CC2OC2C(C)C(C)O)C(O)C1O (stereo not drawn) [Example 8, Allylamide of monic acid A] | 2.5 (≈ 6.52 µM)

Same assay, conditions: Bacillus subtilis, 6633

Row | SMILES | MIC [mg/L]
9 | COC(=O)CCCCCCCCNC(=O)C=C(C)CC1OCC(CC2OC2C(C)C(C)O)C(O)C1O (stereo not drawn) [Example 7, 8-Methoxycarbonyloctylamide of monic acid A] | 2.5 (≈ 4.87 µM)

Each molecule was assayed on Staph. aureus Oxford in the same assay as above. Conditions: Staphylococcus aureus.
Type: cell-based

Row | SMILES | MIC [mg/L]
10 | COC(=O)CCCCCCCCNC(=O)C=C(C)CC1OCC(CC2OC2C(C)C(C)O)C(O)C1O (stereo not drawn) [Example 7, 8-Methoxycarbonyloctylamide of monic acid A] | 10 (≈ 19.5 µM)

Same assay, conditions: Staphylococcus aureus; Staph. aureus Oxford; nutrient agar containing 5% chocolated horse blood; read-out: M.I.C.

Row | SMILES | MIC [mg/L]
11 | C=CCNC(=O)C=C(C)CC1OCC(CC2OC2C(C)C(C)O)C(O)C1O (stereo not drawn) [Example 8, Allylamide of monic acid A] | 2.5 (≈ 6.52 µM)

The molecules below were run on Staph. aureus Russell in the same assay as above. Conditions: Staphylococcus aureus; Staph. aureus Russell; nutrient agar containing 5% chocolated horse blood; read-out: M.I.C.
Type: cell-based

Row | SMILES | MIC [mg/L]
12 | COC(=O)CCCCCCCCNC(=O)C=C(C)CC1OCC(CC2OC2C(C)C(C)O)C(O)C1O (stereo not drawn) [Example 7, 8-Methoxycarbonyloctylamide of monic acid A] | 25 (≈ 48.7 µM)
13 | C=CCNC(=O)C=C(C)CC1OCC(CC2OC2C(C)C(C)O)C(O)C1O (stereo not drawn) [Example 8, Allylamide of monic acid A] | 100 (≈ 261 µM)

What follows are molecules tested on Strep. pneumoniae CN33 in the same assay as above. Conditions: Streptococcus pneumoniae; Strep. pneumoniae CN33; nutrient agar containing 5% chocolated horse blood; read-out: M.I.C.
Type: cell-based

Row | SMILES | MIC [mg/L]
14 | C=CCNC(=O)C=C(C)CC1OCC(CC2OC2C(C)C(C)O)C(O)C1O (stereo not drawn) [Example 8, Allylamide of monic acid A] | 5 (≈ 13 µM)

Each molecule was assayed on Bord. bronchiseptica BO9 (assay: MIC, veterinary bacteria). Conditions: Bordetella bronchiseptica; Bord. bronchiseptica BO9; read-out: M.I.C.
Type: cell-based

Row | SMILES | MIC [mg/L]
15 | COC(=O)CCCCCCCCNC(=O)C=C(C)CC1OCC(CC2OC2C(C)C(C)O)C(O)C1O (stereo not drawn) [Example 7, 8-Methoxycarbonyloctylamide of monic acid A] | 2 (≈ 3.89 µM)
16 | C=CCNC(=O)C=C(C)CC1OCC(CC2OC2C(C)C(C)O)C(O)C1O (stereo not drawn) [Example 8, Allylamide of monic acid A] | 1.25 (≈ 3.26 µM)

The molecules below were run on Past. multocida PAI (assay: MIC, veterinary bacteria). Conditions: Pasteurella multocida; Past. multocida PAI; read-out: M.I.C.
Type: cell-based

Row | SMILES | MIC [mg/L]
17 | COC(=O)CCCCCCCCNC(=O)C=C(C)CC1OCC(CC2OC2C(C)C(C)O)C(O)C1O (stereo not drawn) [Example 7, 8-Methoxycarbonyloctylamide of monic acid A] | 1 (≈ 1.95 µM)
18 | C=CCNC(=O)C=C(C)CC1OCC(CC2OC2C(C)C(C)O)C(O)C1O (stereo not drawn) [Example 8, Allylamide of monic acid A] | 1.25 (≈ 3.26 µM)

The molecules below were run on Past. haemolytica PA5 (assay: MIC, veterinary bacteria). Conditions: Mannheimia haemolytica; Past. haemolytica PA5; read-out: M.I.C.
Type: cell-based

Row | SMILES | MIC [mg/L]
19 | COC(=O)CCCCCCCCNC(=O)C=C(C)CC1OCC(CC2OC2C(C)C(C)O)C(O)C1O (stereo not drawn) [Example 7, 8-Methoxycarbonyloctylamide of monic acid A] | 8 (≈ 15.6 µM)
20 | C=CCNC(=O)C=C(C)CC1OCC(CC2OC2C(C)C(C)O)C(O)C1O (stereo not drawn) [Example 8, Allylamide of monic acid A] | 0.625 (≈ 1.63 µM)

The molecules below were run on Staph. aureus B4 (assay: MIC, veterinary bacteria). Conditions: Staphylococcus aureus; Staph. aureus B4; read-out: M.I.C.
Type: cell-based

Row | SMILES | MIC [mg/L]
21 | COC(=O)CCCCCCCCNC(=O)C=C(C)CC1OCC(CC2OC2C(C)C(C)O)C(O)C1O (stereo not drawn) [Example 7, 8-Methoxycarbonyloctylamide of monic acid A] | 4 (≈ 7.79 µM)
22 | C=CCNC(=O)C=C(C)CC1OCC(CC2OC2C(C)C(C)O)C(O)C1O (stereo not drawn) [Example 8, Allylamide of monic acid A] | 5 (≈ 13 µM)

Each molecule was assayed on Staph. aureus 152 (assay: MIC, veterinary bacteria). Conditions: Staphylococcus aureus.
Type: cell-based

Row | SMILES | MIC [mg/L]
23 | COC(=O)CCCCCCCCNC(=O)C=C(C)CC1OCC(CC2OC2C(C)C(C)O)C(O)C1O (stereo not drawn) [Example 7, 8-Methoxycarbonyloctylamide of monic acid A] | 8 (≈ 15.6 µM)
24 | C=CCNC(=O)C=C(C)CC1OCC(CC2OC2C(C)C(C)O)C(O)C1O (stereo not drawn) [Example 8, Allylamide of monic acid A] | 20 (≈ 52.2 µM)

The molecules below were run on Strep. uberis SPU 1 (assay: MIC, veterinary bacteria). Conditions: Streptococcus uberis, SPU1; Strep. uberis SPU 1; read-out: M.I.C.
Type: cell-based

Row | SMILES | MIC [mg/L]
25 | COC(=O)CCCCCCCCNC(=O)C=C(C)CC1OCC(CC2OC2C(C)C(C)O)C(O)C1O (stereo not drawn) [Example 7, 8-Methoxycarbonyloctylamide of monic acid A] | 0.125 (≈ 0.243 µM)
26 | C=CCNC(=O)C=C(C)CC1OCC(CC2OC2C(C)C(C)O)C(O)C1O (stereo not drawn) [Example 8, Allylamide of monic acid A] | 0.625 (≈ 1.63 µM)

These molecules were tested on Strep. dysgalactiae SPD 1 (assay: MIC, veterinary bacteria). Conditions: Streptococcus dysgalactiae, SPD1; Strep. dysgalactiae SPD 1; read-out: M.I.C.
Type: cell-based

Row | SMILES | MIC [mg/L]
27 | COC(=O)CCCCCCCCNC(=O)C=C(C)CC1OCC(CC2OC2C(C)C(C)O)C(O)C1O (stereo not drawn) [Example 7, 8-Methoxycarbonyloctylamide of monic acid A] | 0.0625 (≈ 0.122 µM)
28 | C=CCNC(=O)C=C(C)CC1OCC(CC2OC2C(C)C(C)O)C(O)C1O (stereo not drawn) [Example 8, Allylamide of monic acid A] | 0.156 (≈ 0.407 µM)

Each molecule was assayed on M. suipneumoniae Str. 11 (assay: in vitro MIC, anti-mycoplasmal activity). Conditions: Mesomycoplasma hyopneumoniae, Friis' broth, microtiter method.
Type: cell-based

Row | SMILES | MIC [mg/L]
29 | COC(=O)CCCCCCCCNC(=O)C=C(C)CC1OCC(CC2OC2C(C)C(C)O)C(O)C1O (stereo not drawn) [Example 7, 8-Methoxycarbonyloctylamide of monic acid A] | 1.25 (≈ 2.43 µM)
30 | C=CCNC(=O)C=C(C)CC1OCC(CC2OC2C(C)C(C)O)C(O)C1O (stereo not drawn) [Example 8, Allylamide of monic acid A] | 0.625 (≈ 1.63 µM)

What follows are molecules tested on M. dispar H225 (assay: in vitro MIC, anti-mycoplasmal activity). Conditions: M. dispar H225; Friis' broth, microtiter method; read-out: M.I.C.
Type: cell-based
Description: (§1) Tables 3 and 4 show the in vitro MIC values (μg/ml) of the compounds of Examples 1 to 9 against a number of mycoplasma organisms, determined in Friis' broth using the microtiter method.

Row | SMILES | MIC [mg/L]
31 | C=CCNC(=O)C=C(C)CC1OCC(CC2OC2C(C)C(C)O)C(O)C1O (stereo not drawn) [Example 8, Allylamide of monic acid A] | 0.078 (≈ 0.203 µM)

What follows are molecules tested on M. dispar NCTC 10125 (assay: in vitro MIC, anti-mycoplasmal activity). Conditions: Friis' broth, microtiter method.
Type: cell-based
Description: as §1

Row | SMILES | MIC [mg/L]
32 | COC(=O)CCCCCCCCNC(=O)C=C(C)CC1OCC(CC2OC2C(C)C(C)O)C(O)C1O (stereo not drawn) [Example 7, 8-Methoxycarbonyloctylamide of monic acid A] | 0.156 (≈ 0.304 µM)
33 | C=CCNC(=O)C=C(C)CC1OCC(CC2OC2C(C)C(C)O)C(O)C1O (stereo not drawn) [Example 8, Allylamide of monic acid A] | 0.078 (≈ 0.203 µM)

The molecules below were run on M. fermentans MWKL4 (assay: in vitro MIC, anti-mycoplasmal activity). Conditions: Mycoplasmopsis fermentans, Friis' broth, microtiter method.
Type: cell-based
Description: as §1

Row | SMILES | MIC [mg/L]
34 | COC(=O)CCCCCCCCNC(=O)C=C(C)CC1OCC(CC2OC2C(C)C(C)O)C(O)C1O (stereo not drawn) [Example 7, 8-Methoxycarbonyloctylamide of monic acid A] | < 0.02
35 | C=CCNC(=O)C=C(C)CC1OCC(CC2OC2C(C)C(C)O)C(O)C1O (stereo not drawn) [Example 8, Allylamide of monic acid A] | 0.039 (≈ 0.102 µM)

Each molecule was assayed on M. pneumoniae ATCC 15492 (assay: in vitro MIC, anti-mycoplasmal activity). Conditions: Mycoplasmoides pneumoniae, ATCC15492, Friis' broth, microtiter method.
Type: cell-based
Description: as §1

Row | SMILES | MIC [mg/L]
36 | COC(=O)CCCCCCCCNC(=O)C=C(C)CC1OCC(CC2OC2C(C)C(C)O)C(O)C1O (stereo not drawn) [Example 7, 8-Methoxycarbonyloctylamide of monic acid A] | 10 (≈ 19.5 µM)

Each molecule was assayed on M. pulmonis JB (assay: in vitro MIC, anti-mycoplasmal activity). Conditions: Mycoplasmopsis pulmonis, Friis' broth, microtiter method.
Type: cell-based
Description: as §1

Row | SMILES | MIC [mg/L]
37 | COC(=O)CCCCCCCCNC(=O)C=C(C)CC1OCC(CC2OC2C(C)C(C)O)C(O)C1O (stereo not drawn) [Example 7, 8-Methoxycarbonyloctylamide of monic acid A] | < 0.02
38 | C=CCNC(=O)C=C(C)CC1OCC(CC2OC2C(C)C(C)O)C(O)C1O (stereo not drawn) [Example 8, Allylamide of monic acid A] | 0.039 (≈ 0.102 µM)

These molecules were tested on M. suipneumoniae J2206/183b (assay: in vitro MIC, anti-mycoplasmal activity). Conditions: Mesomycoplasma hyopneumoniae, Friis' broth, microtiter method.
Type: cell-based
Description: as §1

Row | SMILES | MIC [mg/L]
39 | COC(=O)CCCCCCCCNC(=O)C=C(C)CC1OCC(CC2OC2C(C)C(C)O)C(O)C1O (stereo not drawn) [Example 7, 8-Methoxycarbonyloctylamide of monic acid A] | 10 (≈ 19.5 µM)
40 | C=CCNC(=O)C=C(C)CC1OCC(CC2OC2C(C)C(C)O)C(O)C1O (stereo not drawn) [Example 8, Allylamide of monic acid A] | 1.25 (≈ 3.26 µM)

The molecules below were run on M. pneumoniae 427a (assay: in vitro MIC, anti-mycoplasmal activity). Conditions: Mycoplasmoides pneumoniae, Friis' broth, microtiter method.
Type: cell-based

Row | SMILES | MIC [mg/L]
41 | COC(=O)CCCCCCCCNC(=O)C=C(C)CC1OCC(CC2OC2C(C)C(C)O)C(O)C1O (stereo not drawn) [Example 7, 8-Methoxycarbonyloctylamide of monic acid A] | 10 (≈ 19.5 µM)
42 | C=CCNC(=O)C=C(C)CC1OCC(CC2OC2C(C)C(C)O)C(O)C1O (stereo not drawn) [Example 8, Allylamide of monic acid A] | 10 (≈ 26.1 µM)
